Structures can show the parent of a compound that is named as a salt.

Our source for the IC50 values is US8507489B2, “Bicyclic triazoles as protein kinase modulators” (SGX Pharmaceuticals, Inc., priority 2006, dated 2013).

The target of one test is c-MET (Homo sapiens, UniProt P08581). Briefly: MET luminescence-based enzyme assay (Kinase-Glo). It is filed as biochemical. The method, then: The subscript designates positive or negative controls. The Z′ score for a robust screening assay should be ≧0.50. The typical threshold=μ+−3*σ+. Any value that falls below the threshold was designated a “hit”.
MET Luminescence-Based Enzyme Assay
MET kinase (see below), Kinase-Glo™ (Promega Cat#V6712).
Negative controls contained 10 μM staurosporine.
In general terms: Kinase-Glo reads ATP consumption through a luciferase reaction.

The subject of the next test is GTL16 cells. Briefly: 96-well XTT cell survival assay (GTL16 cells). It is filed as cell-based. The method, then:
GTL16 cells were maintained in DMEM Medium supplemented with 10% fetal bovine serum (FBS) 2 mM L-Glutamine and 100 units penicillin/100 μg streptomycin, at 37° C. in 5% CO2.
Compounds were tested in the following assays in duplicate.
96-well XTT assay (GTL16 cells): One day prior to assay the growth media was aspirated off and assay media was added to cells. On the day of the assay, the cells were grown in assay media containing various concentrations of compounds (duplicates) on a 96-well flat bottom plate for 72 hours at 37° C. in 5% CO2. The starting cell number was 5000 cells per well and volume was 120 μl. At the end of the 72-hour incubation, 40 μl of XTT labeling mixture (50:1 solution of sodium 3′-[1-(phenylaminocarbonyl)-3,4-tetrazolium]-bis (4-methoxy-6-nitro) benzene sulfonic acid hydrate and Electron-coupling reagent: PMS (N-methyl dibenzopyrazine methyl sulfate) were added to each well of the plate. After an additional 5 hours of incubation at 37° C., the absorbance reading at 450 nm with a background correction of 650 nm was measured with a spectrophotometer.
(Formazan colour is commonly taken as a measure of viable cells.)

Chain of c-MET (P08581 1078-1345 limits assumed): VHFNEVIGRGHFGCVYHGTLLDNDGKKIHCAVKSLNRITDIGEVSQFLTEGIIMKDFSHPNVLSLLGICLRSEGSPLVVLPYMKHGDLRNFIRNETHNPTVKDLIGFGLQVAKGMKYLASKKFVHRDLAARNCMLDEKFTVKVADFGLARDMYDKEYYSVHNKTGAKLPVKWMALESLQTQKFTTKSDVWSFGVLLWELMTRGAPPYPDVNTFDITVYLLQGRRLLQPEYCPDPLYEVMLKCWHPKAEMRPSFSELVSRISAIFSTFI

The term IC50 denotes the point on the concentration scale where inhibition reaches its midpoint. On to `Cc1ccc2nnc(Sc3ccc4ncc(-c5cnn(C(C)(C)C(=O)O)c5)cc4c3)n2n1` [Compound 45, 2-Methyl-2-{4-[6-(6-methyl-[1,2,4]triazolo[4,3-b]pyridazin-3-ylsulfanyl)-quinolin-3-yl]-pyrazol-1-yl}-propionic acid], for which the IC50 at c-MET is less than 0.1 µM; in the test with GTL16 cells (Homo sapiens, GTL 16, 72 hours), 1 to 10 µM.

As for `Cn1cc(-c2ccc3nnc(Sc4ccc5ncn(C)c5c4)n3n2)cn1` [Compound 25, 3-(3-Methyl-3H-benzoimidazol-5-ylsulfanyl)-6-(1-methyl-1H-pyrazol-4-yl)-[1,2,4]triazolo[4,3-b]pyridazine], the IC50 is less than 0.1 µM at c-MET and no more than 0.1 µM in the test on GTL16 cells (Homo sapiens, GTL 16, 72 hours).

`Cc1ccc2nnc(Sc3cc4cc(-c5cnn(C)c5)cnc4cc3F)n2n1` [Compound 52, 7-Fluoro-3-(1-methyl-1H-pyrazol-4-yl)-6-(6-methyl-[1,2,4]triazolo[4,3-b]pyridazin-3-ylsulfanyl)-quinoline]: the IC50 against c-MET was less than 0.1 µM; in the test on GTL16 cells (Homo sapiens, GTL 16, 72 hours) it was no more than 0.1 µM.

Turning to `Cn1cc(-c2ccc3nnc(Sc4ccc5ncccc5c4[N+](=O)[O-])n3n2)cn1` [Compound 13, 6-[6-(1-Methyl-1H-pyrazol-4-yl)-[1,2,4]triazolo[4,3-b]pyridazin-3-ylsulfanyl]-5-nitro-quinoline], the IC50 was in the range of 0.1 to 1 µM against c-MET and 0.1 to 1 µM with GTL16 cells (Homo sapiens, GTL 16, 72 hours).

`Fc1cccc(-c2ccc3nnc(Sc4ccc5ncccc5c4)n3n2)c1` [Compound 5, 6-[6-(3-Fluoro-phenyl)-[1,2,4]triazolo[4,3-b]pyridazin-3-ylsulfanyl]-quinoline]: the IC50 against c-MET was less than 0.1 µM; in the test on GTL16 cells (Homo sapiens, GTL 16, 72 hours), no more than 0.1 µM.

On to `COCCn1cnc2ccc(Sc3nnc4ccc(-c5cnn(C)c5)nn34)cc21` [Compound 31, 3-[3-(2-Methoxy-ethyl)-3H-benzoimidazol-5-ylsulfanyl]-6-(1-methyl-1H-pyrazol-4-yl)-[1,2,4]triazolo[4,3-b]pyridazine], for which the IC50 is less than 0.1 µM at c-MET and 0.1 to 1 µM in the test with GTL16 cells (Homo sapiens, GTL 16, 72 hours).

On to `CCn1cc(-c2cnc3ccc(Sc4nnc5ccc(C)nn45)cc3c2)cn1` [Compound 66, 3-(1-Ethyl-1H-pyrazol-4-yl)-6-(6-methyl-[1,2,4]triazolo[4,3-b]pyridazin-3-ylsulfanyl)-quinoline], for which the IC50 against c-MET was less than 0.1 µM; in the test with GTL16 cells (Homo sapiens, GTL 16, 72 hours) it was no more than 0.1 µM.

`Cn1cc(-c2ccc3nnc(Sc4ccc5nccc(OCCO)c5c4)n3n2)cn1` [Compound 50, 2-{6-[6-(1-Methyl-1H-pyrazol-4-yl)-[1,2,4]triazolo[4,3-b]pyridazin-3-ylsulfanyl]-quinolin-4-yloxy}-ethanol]: the IC50 at c-MET was less than 0.1 µM; with GTL16 cells (Homo sapiens, GTL 16, 72 hours) it was no more than 0.1 µM.

For the molecule `Cn1cc(-c2cnc3[nH]cc(Sc4nnc5ccc(-c6cnn(C)c6)nn45)c3c2)cn1` [Compound 46, 6-(1-Methyl-1H-pyrazol-4-yl)-3-[5-(1-methyl-1H-pyrazol-4-yl)-1H-pyrrolo[2,3-b]pyridin-3-ylsulfanyl]-[1,2,4]triazolo[4,3-b]pyridazine], the IC50 at c-MET is less than 0.1 µM; with GTL16 cells (Homo sapiens, GTL 16, 72 hours), no more than 0.1 µM.

Turning to `Fc1cccc(-c2cnc3nnc(Sc4ccc5ncccc5c4)n3n2)c1` [Compound 9, 6-[6-(3-Fluoro-phenyl)-[1,2,4]triazolo[4,3-b][1,2,4]triazin-3-ylsulfanyl]-quinoline], the IC50 against c-MET was less than 0.1 µM; in the test on GTL16 cells (Homo sapiens, GTL 16, 72 hours), no more than 0.1 µM.

On to `CCc1ccc2nnc(Sc3ccc4ncc(-c5cnn(C6CN(CC)C6)c5)cc4c3)n2n1` [Compound 70, 3-[1-(1-Ethyl-azetidin-3-yl)-1H-pyrazol-4-yl]-6-(6-ethyl-[1,2,4]triazolo[4,3-b]pyridazin-3-ylsulfanyl)-quinoline], for which the IC50 against c-MET is less than 0.1 µM; in the test on GTL16 cells (Homo sapiens, GTL 16, 72 hours), no more than 0.1 µM.

Regarding `CNC(=O)c1ccc(-c2ccc3nnc(Sc4cc5cccnc5cc4F)n3n2)cc1F` [Compound 17, 2-Fluoro-4-[3-(7-fluoro-quinolin-6-ylsulfanyl)-[1,2,4]triazolo[4,3-b]pyridazin-6-yl]-N-methyl-benzamide], the IC50 against c-MET was less than 0.1 µM; with GTL16 cells (Homo sapiens, GTL 16, 72 hours), no more than 0.1 µM.

For `Cc1ccc2nnc(Sc3c[nH]c4ncc(-c5cnn(C)c5)cc34)n2n1` [Compound 53, 6-Methyl-3-[5-(1-methyl-1H-pyrazol-4-yl)-1H-pyrrolo[2,3-b]pyridin-3-ylsulfanyl]-[1,2,4]triazolo[4,3-b]pyridazine], the IC50 was less than 0.1 µM on c-MET and 0.1 to 1 µM in the test on GTL16 cells (Homo sapiens, GTL 16, 72 hours).

Take `Cn1cc(-c2ccc3nnc(Sc4ccc5ncc(NC(=O)OC(C)(C)C)cc5c4)n3n2)cn1` [Compound 35, {6-[6-(1-Methyl-1H-pyrazol-4-yl)-[1,2,4]triazolo[4,3-b]pyridazin-3-ylsulfanyl]-quinolin-3-yl}-carbamic acid tert-butyl ester]: the IC50 at c-MET is less than 0.1 µM; with GTL16 cells (Homo sapiens, GTL 16, 72 hours), no more than 0.1 µM.

With `Cc1ccc2nnc(Sc3ccc4ncc(-c5cnn(C6CN(C(C)C)C6)c5)cc4c3)n2n1` [Compound 69, 3-[1-(1-Isopropyl-azetidin-3-yl)-1H-pyrazol-4-yl]-6-(6-methyl-[1,2,4]triazolo[4,3-b]pyridazin-3-ylsulfanyl)-quinoline], the IC50 was less than 0.1 µM against c-MET and no more than 0.1 µM in the test on GTL16 cells (Homo sapiens, GTL 16, 72 hours).

For the molecule `CN(C)CCn1cnc2ccc(Sc3nnc4ccc(-c5cnn(C)c5)nn34)cc21` [Compound 32, Dimethyl-(2-{6-[6-(1-methyl-1H-pyrazol-4-yl)-[1,2,4]triazolo[4,3-b]pyridazin-3-ylsulfanyl]-benzoimidazol-1-yl}-ethyl)-amine, formic acid salt], the IC50 against c-MET fell in the range of 0.1 to 1 µM; with GTL16 cells (Homo sapiens, GTL 16, 72 hours) it was 1 to 10 µM.

Turning to `CCN1CC(n2cc(-c3cnc4ccc(Sc5nnc6ccc(C)nn56)cc4c3)cn2)C1` [Compound 61, 3-[1-(1-Ethyl-azetidin-3-yl)-1H-pyrazol-4-yl]-6-(6-methyl-[1,2,4]triazolo[4,3-b]pyridazin-3-ylsulfanyl)-quinoline], the IC50 at c-MET is less than 0.1 µM; in the test on GTL16 cells (Homo sapiens, GTL 16, 72 hours), no more than 0.1 µM.

`Cc1ccc2nnc(Sc3ccc4ncc(-c5cnn(C6CNC6)c5)cc4c3)n2n1` [Compound 62, 3-(1-Azetidin-3-yl-1H-pyrazol-4-yl)-6-(6-methyl-[1,2,4]triazolo[4,3-b]pyridazin-3-ylsulfanyl)-quinoline]: the IC50 is less than 0.1 µM at c-MET and no more than 0.1 µM in the test with GTL16 cells (Homo sapiens, GTL 16, 72 hours).

For `Cc1ccc2nnc(Sc3ccc4ncc(-c5cnn(CC(=O)O)c5)cc4c3)n2n1` [Compound 42, {4-[6-(6-Methyl-[1,2,4]triazolo[4,3-b]pyridazin-3-ylsulfanyl)-quinolin-3-yl]-pyrazol-1-yl}-acetic acid], the IC50 is less than 0.1 µM at c-MET and 1 to 10 µM in the test on GTL16 cells (Homo sapiens, GTL 16, 72 hours).

Regarding `Cc1ccc2nnc(Sc3ccc4ncc(-c5cnn(C)c5)cc4c3F)n2n1` [Compound 56, 5-Fluoro-3-(1-methyl-1H-pyrazol-4-yl)-6-(6-methyl-[1,2,4]triazolo[4,3-b]pyridazin-3-ylsulfanyl)-quinoline], the IC50 on c-MET was less than 0.1 µM; with GTL16 cells (Homo sapiens, GTL 16, 72 hours) it was no more than 0.1 µM.

For `Cn1cc(-c2ccc3nnc(Sc4ccc5ncncc5c4)n3n2)cn1` [Compound 12, 6-[6-(1-Methyl-1H-pyrazol-4-yl)-[1,2,4]triazolo[4,3-b]pyridazin-3-ylsulfanyl]-quinazoline], the IC50 at c-MET fell in the range of 0.1 to 1 µM; with GTL16 cells (Homo sapiens, GTL 16, 72 hours), 0.1 to 1 µM.

With `CCc1ccnc2ccc(Sc3nnc4ccc(-c5cnn(C)c5)nn34)cc12` [Compound 60, 4-Ethyl-6-[6-(1-methyl-1H-pyrazol-4-yl)-[1,2,4]triazolo[4,3-b]pyridazin-3-ylsulfanyl]-quinoline], the IC50 against c-MET was less than 0.1 µM; in the test on GTL16 cells (Homo sapiens, GTL 16, 72 hours), no more than 0.1 µM.

On to `Cn1cc(-c2ccc3nnc(Sc4cc5cccnc5cc4F)n3n2)cn1` [Compound 10, 7-Fluoro-6-[6-(1-methyl-1H-pyrazol-4-yl)-[1,2,4]triazolo[4,3-b]pyridazin-3-ylsulfanyl]-quinoline], for which the IC50 on c-MET is less than 0.1 µM; with GTL16 cells (Homo sapiens, GTL 16, 72 hours) it was no more than 0.1 µM.

As to `CNC(=O)c1ccc(-c2ccc3nnc(Sc4cc5cccnc5cc4C)n3n2)cc1F` [Compound 18, 2-Fluoro-N-methyl-4-[3-(7-methyl-quinolin-6-ylsulfanyl)-[1,2,4]triazolo[4,3-b]pyridazin-6-yl]-benzamide], the IC50 was less than 0.1 µM against c-MET and no more than 0.1 µM in the test with GTL16 cells (Homo sapiens, GTL 16, 72 hours).

For the molecule “(2:1) mixture of 3-(7-Methyl-benzothiazol-6-ylsulfanyl)-6-(1-methyl-1H-pyrazol-4-yl)-[1,2,4]triazolo[4,3-b]pyridazine and 3-(5-Methyl-benzothiazol-6-ylsulfanyl)-6-(1-methyl-1H-pyrazol-4-yl)-[1,2,4]triazolo[4,3-b]pyridazine [Compound 8]”, the IC50 against c-MET is less than 0.1 µM; in the test with GTL16 cells (72 hours), no more than 0.1 µM.

Consider `CCc1ccc2nnc(Sc3ccc4ncc(-c5cnn(C)c5)cc4c3)n2n1` [Compound 58, 6-(6-Ethyl-[1,2,4]triazolo[4,3-b]pyridazin-3-ylsulfanyl)-3-(1-methyl-1H-pyrazol-4-yl)-quinoline], for which the 50% inhibitory concentration (IC50) is less than 0.1 µM at c-MET and no more than 0.1 µM in the test with GTL16 cells (Homo sapiens, GTL 16, 72 hours).

For `Cn1cc(-c2ccc3nnc(Sc4cc5scnc5cc4F)n3n2)cn1` [Compound 15, 3-(5-Fluoro-benzothiazol-6-ylsulfanyl)-6-(1-methyl-1H-pyrazol-4-yl)-[1,2,4]triazolo[4,3-b]pyridazine], the 50% inhibitory concentration (IC50) is less than 0.1 µM at c-MET and no more than 0.1 µM with GTL16 cells (Homo sapiens, GTL 16, 72 hours).
